{"source": "patent US7132287B2", "about": "“Method for neural stem cell differentiation using 5HT-1A agonists” (Psychiatric Genomics, Inc., priority 2001, dated 2006)", "tested_on": "cortical neural stem cells", "test": "Neuronal differentiation of cortical neural stem cells (β tubulin III / TuJ-1 immunofluorescence)", "type": "cell-based, rat", "details": "1 μM Buspirone alone, 6 days", "source_text": "Isolation of cortical and striatal stem cells. Timed pregnant Sprague Dawley rats obtained from Taconic at embryonic age E14-E15 were sacrificed as described above and the uterus removed and placed in ice cold PBS in a 10 cm petridish. After rinsing the uterus in PBS, embryos were removed from the uterus, rinsed in PBS and collected in cold HBSS (buffered with HEPES and sodium bicarbonate) in a 10 cm petridish and placed on ice.\nThe cortex and striatum was dissected under a microscope and collected in a 15 ml tube of HBSS, on ice. Removal of meninges is not possible at this age, and no attempt was made to do so. If the dissected tissue was in large enough chunks and settle to the bottom of the tube, no centrifugation was performed. Alternatively, the tube was centrifuged at 1000 rpm for 5 minutes to pellet the tissue. Following centrifugation, the 15 ml tube containing the tissue was sprayed with 70% ethanol and taken into the sterile hood.\nThe HBSS was aspirated and replaced with 10 ml of DMEM/F12. The tissue was collected at the bottom of the tube by gravity or centrifugation, medium was aspirated, and 1 ml of DMEM/F12 was to the tissue. Cells were dissociated by trituration as described above, followed by addition of 5 ml of DMEM/F12 and a second round of trituration. […] The tubes were placed standing 5–10 minutes in the hood to allow larger particles and meninges to settle. While the meninges were settling, a cell count was made. 10 μl of the cell suspension is diluted with trypan blue and counted in a hemocytometer. Cells were counted in the four outer chambers with the larger squares, and cell count calculated assuming that the volume enclosed in each of the chambers was […].\nPlating, expansion and passaging of cortical and striatal stem cells A generous amount of the triturated cell suspension was left in the original 15 ml tube to avoid fibroblast contamination in cultures. About 4–5 ml of the 6 ml of cells suspension was used for plating. Cells were plated at a concentration of approximately 1×10^6 per 10 cm dish. This culture is designated P0 (passage 0).\nFollowing plating cells were expanded for about 3–4 days. The cultures were never permitted to reach more than 70% confluency. Cultures were then passaged as follows: 5 ml of HBSS was added to each 10 cm dish and the cells incubated at 37° C. for 15–45 minutes, or until sufficient numbers of the stem cells were rounded up. It is not expected that all cells in the culture will round up as there are several cell types in the culture at P0. The pH of the HBSS should be neutral at all times during this incubation. Cells were then removed from the dish by pipetting with a 5 ml pipette, or by scraping with a policeman, collected in a 15 or 50 ml conical tube, and centrifuged at 1000 g for 5 minutes. Cells were gently re-suspended in medium, counted, and plated at a density of about 1×10^6 per 10 cm dish.\nDrug treatments. Stem cells obtained as described above were treated with drugs and subjected to differentiation protocols in the second passage. Cells were plated at a density of 1×10^4 cells per well of a 12-well petridish (Falcon).\nDrug treatments were started on the next day. […] The WAY 100635 antagonist compound was used simultaneously with buspirone or serotonin in the blocking experiments. Positive and negative control cultures were those treated with BDNF and FGF alone, respectively.\nCells were treated with the designated concentrations of drugs or combinations thereof, daily, and were fed every alternate day with fresh medium. Experiments were maintained for about 6–10 days in most cases.", "key": {"[1]": {"details": "TuJ-1 staining, listed as Buspirone"}}, "note": "Several values for one entry are separate records, joined by “and”; a condition that tells them apart may be missing. Identical values can stand only once."}
{"smiles": "O=C1CC2(CCCC2)CC(=O)N1CCCCN1CCN(c2ncccn2)CC1", "note": "[buspirone, 8-[4-[4-(2-pyrimidinyl)-1-piperazinyl]butyl]-8-azaspiro[4,5]decane-7,9-dione]", "values": [{"measurement": "Total No. of Cells", "value": "1168 and 1228"}, {"measurement": "% Fluorescent Cells", "setting": "TuJ-1 staining", "value": "significant neuronal differentiation"}, {"measurement": "% Fluorescent Cells", "setting": "[1]", "value": "27.27% and 20.15%"}, {"measurement": "No. Fluorescent Cells", "setting": "[1]", "value": "320 and 260"}]}
